Assay results as given in patent publication US8044211B2 (Chroma Therapeutics Ltd., priority 2006, dated 2011).

What was measured:
p38 MAP Kinase a = target: T1, p38 MAP Kinase a (Homo sapiens, UniProt Q16539); assay: p38 MAP Kinase activity, radiometric filter-binding assay (Upstate); type: biochemical; details: IC50 range; ATP at or close to Km; read-out: Inhibitor activity versus p38 MAPKa
T1 construct: purchased Upstate (Dundee UK)
Procedure, shortened: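 Human p38 MAP kinase α (5-10 mU) with 0.33 mg/mL myelin basic protein, 25 mM Tris pH 7.5, 0.002 mM EGTA, 10 mM Mg acetate and [γ-33P]ATP at or near Km; 40 min at RT. Phosphoric acid stop, P30 filter binding and scintillation counting; IC50 from 9-step ⅓-log dilutions from 10 μM top concentration, duplicates.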

THP-1 TNFα release = assay: LPS-stimulation of THP-1 cells, TNF-α by ELISA; type: cell-based; details: Homo sapiens, THP-1; IC50 range; LPS 1 μg/ml, 6 hrs; read-out: Inhibitor activity versus THP-1 TNFα release
Description: THP-1 cells were plated in 100 μl at a density of 4×10^4 cells/well in V-bottomed 96 well tissue culture treated plates and incubated at 37° C. in 5% CO2 for 16 hrs. 2 hrs after the addition of the inhibitor in […], of tissue culture media, the cells were stimulated with LPS (E. coli strain 005:B5, Sigma) at a final concentration of 1 μg/ml and incubated at 37° C. in 5% CO2 for 6 hrs. TNF-α levels were measured from cell-free supernatants by sandwich ELISA (R&D Systems #QTA00B).

[1] = system: human whole blood TNFα release; assay: LPS-stimulation of human whole blood, TNF-α by ELISA; type: cell-based; details: IC50 range, LPS 100 ng/ml, 6 hrs, read-out: Inhibitor activity versus human whole blood TNFα release
Description: Whole blood was taken by venous puncture using heparinised vacutainers (Becton Dickinson) and diluted in an equal volume of RPMI 1640 tissue culture media (Sigma). 100 μl was plated in V-bottomed 96 well tissue culture treated plates. 2 hrs after the addition of the inhibitor in 100 μl of RPMI 1640 media, the blood was stimulated with LPS (E. coli strain 005:B5, Sigma) at a final concentration of 100 ng/ml and incubated at 37° C. in 5% CO2 for 6 hrs. TNF-α levels were measured from cell-free supernatants by sandwich ELISA (R&D Systems #QTA00B)

T1 sequence (Q16539 whole entry): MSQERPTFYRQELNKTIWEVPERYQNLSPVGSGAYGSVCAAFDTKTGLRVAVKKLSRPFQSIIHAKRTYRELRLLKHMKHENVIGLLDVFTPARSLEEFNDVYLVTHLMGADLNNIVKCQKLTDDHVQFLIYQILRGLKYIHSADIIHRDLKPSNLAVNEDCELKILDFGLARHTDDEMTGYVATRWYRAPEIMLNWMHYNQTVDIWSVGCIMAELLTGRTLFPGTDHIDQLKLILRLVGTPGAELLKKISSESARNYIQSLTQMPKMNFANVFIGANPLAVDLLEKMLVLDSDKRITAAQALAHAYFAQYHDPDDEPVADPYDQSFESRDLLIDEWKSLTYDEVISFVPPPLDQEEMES

Row | Structure (SMILES) | IC50 (p38 MAP Kinase a) [nM] | IC50 (THP-1 TNFα release) [nM] | IC50 [1] [nM]
1 | CC(C)C[C@H](NCCc1ccc(-n2c(N)c(C(=O)c3ccc(F)cc3)ccc2=O)cc1)C(=O)OC1CCCC1 [Example 57, Cyclopentyl N-[2-(4-{6-amino-5-[(4-fluorophenyl)carbonyl]-2-oxopyridin-1(2H)-yl}phenyl)ethyl]-L-leucinate] | 100 to 1000 | < 100 | 100 to 1000
2 | Cc1cc(C(=O)c2ccc(=O)n(-c3ccc(OCCCN[C@@H](CC(C)C)C(=O)OC4CCCC4)cc3)c2N)ccc1F [Example 27, Cyclopentyl(S)-2-(3-{4-[6-Amino-5-(4-fluoro-3-methylbenzoyl)-2-oxo-2H-pyridin-1-yl]phenoxy}propylamino)-4-methylpentanoate] | 100 to 1000 | 100 to 1000 | > 1000
3 | CC(C)C[C@H](NCc1ccc(-n2c(N)c(C(=O)c3ccc(F)cc3)ccc2=O)cc1)C(=O)OC1CCCC1 [Example 3, Cyclopentyl(S)-2-{4-[6-Amino-5-(4-fluorobenzoyl)-2-oxo-2H-pyridin-1-yl]benzylamino}-4-methylpentanoate] | 100 to 1000 | > 1000 | > 1000
4 | CC(C)C[C@H](NCCCOc1cc(F)c(-n2c(N)c(C(=O)c3ccc(F)cc3F)ccc2=O)c(F)c1)C(=O)OCCN(C)C [Example 46, 2-(Dimethylamino)ethyl N-(3-{4-[6-amino-5-(2,4-difluorobenzoyl)-2-oxopyridin-1(2H)-yl]-3,5-difluorophenoxy}propyl)-L-leucinate] | 100 to 1000 | < 100 | 100 to 1000
5 | CC(C)C[C@H](NCCc1ccc(-n2c(N)c(C(=O)c3ccc(F)cc3F)ccc2=O)cc1)C(=O)OC1CCCC1 [Example 59, Cyclopentyl N-[2-(4-{6-amino-5-[(2,4-difluorophenyl)carbonyl]-2-oxopyridin-1(2H)-yl}phenyl)ethyl]-L-leucinate] | 100 to 1000 | < 100 | 100 to 1000
6 | Cc1cc(C(=O)c2ccc(=O)n(-c3c(F)cc(OCCCN[C@@H](CC(C)C)C(=O)OC4CCCC4)cc3F)c2N)ccc1F [Example 19, Cyclopentyl(S)-2-(3-{4-[6-Amino-5-(4-fluoro-3-methylbenzoyl)-2-oxo-2H-pyridin-1-yl]-3,5-difluorophenoxy}propylamino)-4-methylpentanoate] | < 100 | < 100 | > 1000
7 | Nc1c(C(=O)c2ccc(F)cc2F)ccc(=O)n1-c1c(F)cc(OCCCN[C@H](C(=O)OC2CCCC2)C2CCCCC2)cc1F [Example 48, Cyclopentyl(2S)-[(3-{4-[6-amino-5-(2,4-difluorobenzoyl)-2-oxopyridin-1(2H)-yl]-3,5-difluorophenoxy}propyl)amino](cyclohexyl)acetate] | < 100 | < 100 | > 1000
8 | Nc1c(C(=O)c2ccc(F)cc2F)ccc(=O)n1-c1c(F)cc(OCCCN[C@@H](C(=O)OC2Cc3ccccc3C2)c2ccccc2)cc1F [Example 41, 2,3-dihydro-1H-inden-2-yl (2R)-[(3-{4-[6-amino-5-(2,4-difluorobenzoyl)-2-oxopyridin-1(2H)-yl]-3,5-difluorophenoxy}propyl)amino](phenyl)acetate] | 100 to 1000 | < 100 | > 1000
9 | CC(C)C[C@H](NCCCc1ccc(-n2c(N)c(C(=O)c3ccc(F)cc3)ccc2=O)cc1)C(=O)OC1CCCC1 [Example 67, Cyclopentyl N-[3-(4-{6-amino-5-[(4-fluorophenyl)carbonyl]-2-oxopyridin-1(2H)-yl}phenyl)propyl]-L-leucinate] | 100 to 1000 | 100 to 1000 | > 1000
10 | CC(C)C[C@H](NCCc1ccc(-n2c(N)c(C(=O)c3ccc(F)cc3F)ccc2=O)cc1)C(=O)OC(C)(C)C [Example 60, tert-Butyl N-[2-(4-{6-amino-5-[(2,4-difluorophenyl)carbonyl]-2-oxopyridin-1(2H)-yl}phenyl)ethyl]-L-leucinate] | 100 to 1000 | < 100 | 
11 | CCOC(=O)[C@H](CC(C)C)NCCCOc1cc(F)c(-n2c(N)c(C(=O)c3ccc(F)cc3)ccc2=O)c(F)c1 [Example 16, Ethyl N-(3-{4-[6-amino-5-(4-fluorobenzoyl)-2-oxopyridin-1(2H)-yl]-3,5-difluorophenoxy}propyl)-L-leucinate] | < 100 | < 100 | 
12 | Nc1c(C(=O)c2ccc(F)cc2)ccc(=O)n1-c1c(F)cc(OCCCN[C@H](C(=O)OC2CCCC2)c2ccccc2)cc1F [Example 13, Cyclopentyl(S)-(3-{4-[6-Amino-5-(4-fluorobenzoyl)-2-oxo-2H-pyridin-1-yl]-3,5-difluorophenoxy}propylamino)phenylacetate] | < 100 | < 100 | 
13 | Nc1c(C(=O)c2ccc(F)cc2F)ccc(=O)n1-c1c(F)cc(OCCCN[C@H](C(=O)OC2CC3CCC2C3)c2ccccc2)cc1F (stereo partly drawn) [Example 43, Bicyclo[2.2.1]hept-2-yl(2S)-[(3-{4-[6-amino-5-(2,4-difluorobenzoyl)-2-oxopyridin-1(2H)-yl]-3,5-difluorophenoxy}propyl)amino](phenyl)acetate] | < 100 | < 100 | 
14 | Cc1cc(C(=O)c2ccc(=O)n(-c3ccc(CN[C@H](C(=O)OC4CCCC4)c4ccccc4)cc3)c2N)ccc1F [Example 4, Cyclopentyl(S)-{4-[6-Amino-5-(3-methyl-4-fluorobenzoyl)-2-oxo-2H-pyridin-1-yl]benzylamino}phenylacetate] | 100 to 1000 | > 1000 | 
15 | Nc1c(C(=O)c2ccc(F)cc2F)ccc(=O)n1-c1ccc(OCCCN[C@@H](Cc2ccccc2)C(=O)OC2CCCC2)cc1 [Example 29, Cyclopentyl(S)-2-(3-{4-[6-Amino-5-(2,4-difluorobenzoyl)-2-oxo-2H-pyridin-1-yl]phenoxy}propylamino)-3-phenyl propionate] | < 100 | 100 to 1000 | 

Second part, the compound after the results:

Row | IC50 (p38 MAP Kinase a) [nM] | IC50 (THP-1 TNFα release) [nM] | IC50 [1] [nM] | Structure (SMILES)
16 | < 100 | < 100 | 100 to 1000 | CC(C)C[C@H](NCCCOc1cc(F)c(-n2c(N)c(C(=O)c3ccc(F)cc3F)ccc2=O)c(F)c1)C(=O)OCCN1CCOCC1 [Example 47, 2-Morpholin-4-ylethyl N-(3-{4-[6-amino-5-(2,4-difluorobenzoyl)-2-oxopyridin-1(2H)-yl]-3,5-difluorophenoxy}propyl)-L-leucinate]
17 | < 100 | 100 to 1000 | > 1000 | CC(C)C[C@H](NCc1cc(F)c(-n2c(N)c(C(=O)c3ccc(F)cc3F)ccc2=O)c(F)c1)C(=O)OC1CCCC1 [Example 11]
18 | < 100 | 100 to 1000 | > 1000 | CC(C)(C)OC(=O)[C@@H](NCCCOc1cc(F)c(-n2c(N)c(C(=O)c3ccc(F)cc3F)ccc2=O)c(F)c1)C1CCCCC1 [Example 49, tert-Butyl (2S)-[(3-{4-[6-amino-5-(2,4-difluorobenzoyl)-2-oxopyridin-1(2H)-yl]-3,5-difluorophenoxy}propyl)amino](cyclohexyl)acetate]
19 | < 100 | < 100 | > 1000 | CC(C)C[C@H](NCCCOc1cc(F)c(-n2c(N)c(C(=O)c3ccc(F)cc3F)ccc2=O)c(F)c1)C(=O)OC(C)(C)C [Example 38, tert-Butyl(S)-2-(3-{4-[6-Amino-5-(2,4-difluorobenzoyl)-2-oxo-2H-pyridin-1-yl]-3,5-difluorophenoxy}propylamino)-4-methyl pentanoate]
20 | < 100 | 100 to 1000 | > 1000 | CC(C)C[C@H](NCc1ccc(-n2c(N)c(C(=O)c3ccc(F)cc3F)ccc2=O)cc1)C(=O)OC1CCCC1 [Example 9, Cyclopentyl(S)-2-{4-[6-Amino-5-(2,4-difluorobenzoyl)-2-oxo-2H-pyridin-1-yl]benzylamino}-4-methylpentanoate]
21 | < 100 | < 100 | > 1000 | CC(C)C[C@H](NCCCOc1cc(F)c(-n2c(N)c(C(=O)c3ccc(F)cc3)ccc2=O)c(F)c1)C(=O)OC1CCCC1 [Example 15]
22 | < 100 | < 100 | 100 to 1000 | Nc1c(C(=O)c2ccc(F)cc2F)ccc(=O)n1-c1c(F)cc(OCCCN[C@@H](C(=O)OC2CCCC2)c2ccccc2)cc1F [Example 42, Cyclopentyl (2R)-[(3-{4-[6-amino-5-(2,4-difluorobenzoyl)-2-oxopyridin-1 (2H)-yl]-3,5-difluorophenoxy}propyl)amino](phenyl)acetate]
23 | < 100 | 100 to 1000 | > 1000 | CC(C)C[C@H](NCCCOc1ccc(-n2c(N)c(C(=O)c3ccc(F)cc3)ccc2=O)cc1)C(=O)OC1CCCC1 [Example 25, Cyclopentyl(S)-2-(3-{4-[6-Amino-5-(4-fluorobenzoyl)-2-oxo-2H-pyridin-1-yl]phenoxy}propylamino)-4-methylpentanoate]
